US11512821B2, “Systems and method for evaluating ultraviolet-protection products” (ABICH INC., priority 2019, dated 2022)
Like-named read-outs stand apart in the source and are kept apart here.

Legend:
[1] = test system: CD54 (Intercellular Adhesion Molecule); conditions: for CD54 % compared to Negative Control (CN): THP-1, 24 h; for CD54 MFI: THP-1, 24 h at 37° C.
Source text: (§1) The purpose of the test is to assess the absence of pro-sensitizing skin effects from finished products or raw materials intended for contact with the skin or mucous membranes, such as medical devices, cosmetics, toys or textiles. In the present study, we used a human monocytes cell line (THP-1) as prototypic blood-derived immunologically active cell. On these cells, we tested the expression of two costimulatory molecules, CD54 (Intercellular Adhesion Molecule) and CD86 (B7.2), using as a positive control Nickel sulphate, a well-known contact sensitizing agent. Nickel sulphate is able to cause in vivo allergic immune reactions (skin sensitization) and it is also been widely used to study in vitro immune response modulation. As silicone elastomer (Silicone 30A—example of medical grade silicone) was tested at two concentrations, against Nickel positive controls.
(§2) The increasing expression level of CD54 and CD86 on monocytes is a signal of activation of the immune response derived from the exposition to a potentially sensitizing contact antigen. The expression of co-stimulatory molecules on the dendritic cells means activation of the immunological response in terms of capability to present the antigen in the typical tissues (skin in this case), where, in vivo, the immune protective response is triggered.
(§3) The normative reference is OECD Guideline 442E, “In vitro Skin Sensitization; Human Cell Line Activation Test (hCLAT)”, which is hereby incorporated by reference in its entirety. The method differs from the OECD Guideline as the test is performed in a single experimental session instead of three independent tests. As positive control, Nickel Sulfate is used instead of DNCB. […] In addition, the acceptance criteria and choice of concentrations to be used in the final test have been optimized according to the laboratory's historical results over the past 10 years.
(§4) The test is carried out on a monocyte-like human line called THP-1. Cells are kept in RPMI containing 10% FCS and 2 mM glutamine.
(§5) The sample has been eluted in phosphate buffered saline (1 g/5 ml) for 24 hours at 37° C. The eluted sample was diluted in the cell culture medium at different concentrations for the preliminary cytotoxicity screening on the cells aimed to decide the best concentration to test it without cytotoxic effects on the monocytes, in order to avoid false results. Cell medium exposed to the same experimental conditions were used as a negative control.
(§6) Following the results of the preliminary assay, the eluted sample was diluted directly in the cell medium at the two different dilutions in order to obtain the desired final concentrations in contact with the THP-1 cells in vitro. The exposure has been carried out for 24 h at 37° C. with 5% CO2.
(§7) After the incubation with the tested substance and the controls, cells are collected, checked under the microscope for their viability by staining with Trypan Blue dye and counting in a cell counter chamber, washed in PBS and then marked with a fluoresceinated anti-Intercellular Adhesion Molecule (CD54) or B7.2 (CD86) antibody and in both cases with a propidium iodide (PI) solution to simultaneously measure the percentage of dead cells. To this aim, a PI working solution (1 ml PI stock solution (1 mg PI/ml water) in 20 ml PI buffer (1 g glucose/l PBS without Ca/Mg)) is added to […]. A gate is set on the negative cells in order to exclude the dead cells. Only viable cells are included for analyses of CD54 or CD86 expression. After washing, to eliminate the excess antibody, the MFI (Mean Fluorescence Intensity) linked to the cells is evaluated by means of a flux cytofluorimeter (FACS, Fluorescence Activated Cell Sorter, Becton Dickinson, Mountain View, Calif.). This value is proportional to the expression of co-stimulatory molecules.
(§8) The results are expressed in terms of MFI (Mean Fluorescence Intensity).

CD86 (B7.2) = conditions: for CD86 % compared to CN: THP-1, 24 h; for CD86 MFI: THP-1, 24 h at 37° C.
Source text: as §1, §2, §3, §4, §5, §6, §7, §8

THP-1 cells = assay type: cell-based; conditions: percent of living cells (PI negative), b192
Source text: Cell vitality: The percent of living cells (PI negative) must be above 80% in all samples.

## O.O.O.O.O.O.O=S(=O)([O-])[O-].[Ni+2] [Nickel Sulfate, Nickel Sulphate (NiSO4.6H2O)]
[1]; 4 μg/ml
  CD54 % compared to Negative Control (CN): 35.74%
  CD54 MFI: 33.65
[1]; 10 μg/ml
  CD54 % compared to Negative Control (CN): 63.61%
  CD54 MFI: 40.56
[1]; 20 μg/ml
  CD54 % compared to Negative Control (CN): 163.94%
  CD54 MFI: 65.43
CD86 (B7.2); 4 μg/ml
  CD86 % compared to CN: 27.95%
  CD86 MFI: 26.32
CD86 (B7.2); 10 μg/ml
  CD86 % compared to CN: 146.23%
  CD86 MFI: 50.65
CD86 (B7.2); 20 μg/ml
  CD86 % compared to CN: 399.03%
  CD86 MFI: 102.65
THP-1 cells; 4 μg/ml
  PI: 88
THP-1 cells; 10 μg/ml
  PI: 86
THP-1 cells; 20 μg/ml
  PI: 86
